Data as given in patent US20250295658A1, “ANTIPARASITIC AGENTS AND METHODS” (Whitehead Institute for Biomedical Research, priority 2022, published 2025).

Experiments:
[1] = tested on: C57BL/6J mouse embryonic fibroblasts; test: Proliferation of mouse embryonic fibroblasts in DAHP treatment; type: cell-based; settings: 5 mM DAHP, 48 hours; FIG. 2E
Experimental: Proliferation of Mouse Embryonic Fibroblasts in DAHP Treatment Twenty-thousand immortalized C57BL/6J mouse embryonic fibroblasts were plated in a well of a 6-well plate and treated with 5 mM DAHP or PBS vehicle. The cells were allowed to grow for 48 hours, then trypsinized and counted. Population doublings were calculated as follows: [formula] [formula]

Toxoplasma gondii [2] = test: Pyrimethamine/DAHP drug synergy lytic assays; type: cell-based; settings: pyrimethamine in combination with 2.5 mM DAHP; FIGS. 1G-H
Experimental: Pyrimethamine/DAHP Drug Synergy Lytic Assays
96 well plates were utilized to generate 8-point dosage curves of parasites grown in various concentrations of pyrimethamine with and without 2.5 mM DAHP. At the start of the assay, prior to parasite harvest, 96 well plates containing confluent fibroblasts were set up with 1.33× the desired final drug concentrations in 150 μl of volume. This ensured that the addition of 50 μl of parasites would result in the desired 1× drug concentration of both pyrimethamine and DAHP. Wells designated as containing less than the maximum dosage of either drug (10 μg/ml pyrimethamine and 2.5 mM DAHP) received the equivalent volume of vehicle (ethanol for pyrimethamine, PBS for DAHP). Parasites were then force-lysed, filtered, and resuspended to a concentration of 5e5 parasites/ml. 50 μl of parasites were then added to each well, resulting in an infection of 2.5e4 parasites per well. Plates were then spun at 290 g for 5 min. Plates were then incubated for 3 days to allow for parasite plaquing. Plates were then washed with PBS followed by staining with crystal violet as conducted for plaque assays. Well staining was then quantified by plate reader at the 570 nm wavelength. […] Drug curves were then generated and IC50 values were calculated from biological triplicate experiments in GraphPad Prism 9.

[3] = cited from earlier work
NF54 P. falciparum = test: SYBR Green I-based dose-response assay in Plasmodium falciparum; type: cell-based; settings: atovaquone with 1 mM DAHP, FIGS. 2C-D
Experimental: The NF54 P. falciparum line was cultured and synchronized as described previously.^28,29 Cultures were kept at 37° C. in RPMI-1640 medium supplemented with 25 mM HEPES, 100 μM hypoxanthine, 0.5% Albumax II, 24 mM sodium bicarbonate, 25 μg/mL gentamicin (Life Technologies, Carlsbad, CA 11021-045) and gassed with 5% CO2, 1% O2, and 94% N2 mixture. Dose-Response Assay in Plasmodium falciparum A SYBR Green I-based assay was used to measure in vitro P. falciparum drug susceptibility.^30,31 Ring-stage NF54 parasites were seeded at 1% hematocrit and 1% starting parasitemia in 384-well black clear-bottom plates containing test compounds (stocks of 10 mM pyrimethamine, 0.1 mM atovaquone, and 10 mM DHA in DMSO) plated in triplicate in 12-point serial dilutions for 72 h. […] Lysis buffer (0.16% w/v saponin, 1.6% Triton X-100, 5 mM EDTA, and 20 mM Tris-HCl, pH 7.4) with a 1:1000 dilution of SYBR Green I fluorescent dye (Invitrogen) was added for at least 12 h, and fluorescence readings were taken (excitation at 494 nm, emission at 530 nm) using a SpectraMax M5 (Molecular Devices, Sunnyvale, CA) plate reader. IC50 values were calculated using a nonlinear regression curve fit in Graphpad Prism 9 in biological triplicate.

Toxoplasma gondii [4] = test: Plaque assays with DAHP and BH4; type: cell-based; settings: FIG. 1F
Experimental: Plaque Assays with DAHP and BH4
RHAku80 were maintained for at least two passages in DMEM and HPLM prior to beginning the plaque assay. Confluent human fibroblasts were maintained in 6-well plates in either DMEM or HPLM for at least 24 h prior to the start of the assay. To begin the experiment, parasites maintained in DMEM and HPLM were syringe released and filtered through a […]. Parasites were then counted and diluted such that each well received 500 parasites. Wells were then treated with the indicated concentrations of DAHP or PBS vehicle. For the BH4 rescue experiments, wells received 50 μM BH4 or the equivalent volume of DMSO vehicle. Plaques were allowed to grow for 6 days prior to fixation. For fixation, wells were first washed with PBS, then fixed for 10 min at room temperature with 100% ethanol. Wells were then stained for 10 min with crystal violet (12.5 g crystal violet, 125 ml 100% ethanol, 500 ml 1% ammonium oxalate). Wells were then washed three times with water and allowed to dry overnight.

[5] = tested on: DD-BFD2, CST10-fLuc, pSAG1-nLuc reporter strain; test: Firefly and nano-luciferase assays of the DD-BFD2, CST10-fLuc, pSAG1-nLuc reporter strain; type: cell-based, Toxoplasma; settings: 3 μM shield-1
Source text: This strain is able to recapitulate the biology of both the acute tachyzoite stage as well as the chronic bradyzoite stage. Differentiation from the tachyzoite to bradyzoite stage is mediated through the expression of Bradyzoite Formation Deficient 2 (BFD2) tagged with a degradation domain. Under standard conditions, the degradation domain ensures BFD2 is degraded from parasites, maintaining them in the tachyzoite stage. Upon the addition of the small-molecule shield-1, BFD2 is stabilized and causes differentiation of parasites to the bradyzoite stage.^34 The engineered parasite strain allows the use of a dual-luciferase system to report on differentiation status and general parasite viability. Expression of firefly luciferase is driven by fusion via t2a peptide to the bradyzoite marker CST10, whereas expression of nano-luciferase is driven by the tachyzoite promoter SAG1. Addition of shield-1 is able to simultaneously increase the CST10 bradyzoite marker while decreasing the SAGI tachyzoite marker (FIGS. 2G-H). […] This enables examination of the chronic parasite state with minimal interference on the endogenous circuity. Chemical screens of this engineered strain can therefore identify compounds that bias parasite state either to the tachyzoite or bradyzoite stage, as well as compounds capable of killing both stages simultaneously. […]

Row | SMILES | growth of a proliferative mouse fibroblast cell line (population doublings) [1] | reduction in the pyrimethamine IC50 value (Toxoplasma gondii [2]) | solubility [3] | potentiating effect in combination with atovaquone (NF54 P. falciparum) | effect on parasite viability (plaque assay) (Toxoplasma gondii [4]; 2.5 mM DAHP) | parasite lytic cycle (plaque assay) (Toxoplasma gondii [4]; 5 mM DAHP) | antiparasitic effect of DAHP with exogenous BH4 (Toxoplasma gondii [4]; exogenous BH4 (50 μM)) | CST10 bradyzoite marker (firefly luciferase reporter) ([5]; FIG. 2G) | SAG1 tachyzoite marker (nano-luciferase reporter) ([5]; FIG. 2H)
1 | Nc1cc(O)nc(N)n1 [DAHP, 2,4-diamino-6-hydroxypyrimidine] | no effect | 70% | poor | no potentiating effect | no apparent effect | able to block the parasite lytic cycle | rescued |  | 
2 | CC[C@H](C(=O)N1CCCC[C@H]1C(=O)O[C@H](CCc1ccc(OC)c(OC)c1)c1cccc(OCCN2CCOCC2)c1)c1cc(OC)c(OC)c(OC)c1 [shield-1] |  |  |  |  |  |  |  | increase | decreasing
